Measurements reported in PubChem BioAssay AID1963436 (Molecular Pharmacology Branch, DTP, NCI, 2024).

System: OVCAR-5 complex spheroid (HUVEC/MSC), viability % T/C
Test: Anticancer human tumor OVCAR-5 cell line growth inhibition [Asc];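 also: spheroids exposed to agents for 7 days before readout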;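 as to viability, T/C: 100% = DMSO vehicle-treated wells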
Details: for IC50: curve of first compound; for viability, T/C: stronger effect = lower value
Procedure, shortened: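 Stromal components (HUVEC and hMSC) are co-assembled with the cancer cells into multicellular spheroids. Drugs are then added singly or paired, at concentrations falling by half-log increments from a clinically achievable maximum, capped at 10 microM without known Cmax.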

[1] = second compound 0.03 µM, first compound 0.0316 µM
[2] = second compound 0.03 µM, first compound 0.1 µM
[3] = second compound 0.03 µM, first compound 0.316 µM
[4] = second compound 0.03 µM, first compound 1 µM
[5] = second compound 0.0949 µM, first compound 0.0316 µM
[6] = second compound 0.0949 µM, first compound 0.1 µM
[7] = second compound 0.0949 µM, first compound 0.316 µM
[8] = second compound 0.0949 µM, first compound 1 µM
[9] = second compound 0.3 µM, first compound 0.0316 µM
[10] = second compound 0.3 µM, first compound 0.1 µM
[11] = second compound 0.3 µM, first compound 0.316 µM
[12] = second compound 0.3 µM, first compound 1 µM
[13] = second compound 0.949 µM, first compound 0.0316 µM
[14] = second compound 0.949 µM, first compound 0.1 µM
[15] = second compound 0.949 µM, first compound 0.316 µM
[16] = second compound 0.949 µM, first compound 1 µM
[17] = second compound 3 µM, first compound 0.0316 µM
[18] = second compound 3 µM, first compound 0.1 µM
[19] = second compound 3 µM, first compound 0.316 µM
[20] = second compound 3 µM, first compound 1 µM
[21] = second compound 0.1 µM, first compound 0.00949 µM
[22] = second compound 0.1 µM, first compound 0.03 µM
[23] = second compound 0.1 µM, first compound 0.0949 µM
[24] = second compound 0.1 µM, first compound 0.3 µM
[25] = second compound 0.316 µM, first compound 0.00949 µM
[26] = second compound 0.316 µM, first compound 0.03 µM
[27] = second compound 0.316 µM, first compound 0.0949 µM
[28] = second compound 0.316 µM, first compound 0.3 µM
[29] = second compound 1 µM, first compound 0.00949 µM
[30] = second compound 1 µM, first compound 0.03 µM
[31] = second compound 1 µM, first compound 0.0949 µM
[32] = second compound 1 µM, first compound 0.3 µM

`C=C(F)C(=O)N1CCN(c2nc(OCC3CCCN3C)nc3c2CCN(c2cccc4cccc(Cl)c24)C3)CC1CC#N` (stereo not given) + CCN1C(C(=O)NC23CCC(C(=O)O)(CC2)CC3)C(c2cccc(Cl)c2F)C2(C(=O)Nc3cc(Cl)ccc32)C12CCCCC2 was tested, and the IC50 (second compound 0.03 µM) was 1.39 µM, the IC50 (second compound 0.0949 µM) was 1.26 µM and the IC50 (second compound 0.3 µM) was 1.3 µM. The IC50 (second compound 0.949 µM) was 1.28 µM, the IC50 (second compound 3 µM) was 1.29 µM and the viability, T/C [1] was 108%. It also gave a viability, T/C [2] of 94.2%, a viability, T/C [3] of 90.1% and a viability, T/C [4] of 67.2%. The viability, T/C (second compound 0.03 µM, first compound 3.16 µM) was 9.46%, the viability, T/C (second compound 0.03 µM, first compound 10 µM) was 0.18% and the viability, T/C [5] was 102%. The viability, T/C [6] was 104%, the viability, T/C [7] was 87.7% and the viability, T/C [8] was 62.4%. The viability, T/C (second compound 0.0949 µM, first compound 3.16 µM) was 9.56%, the viability, T/C (second compound 0.0949 µM, first compound 10 µM) was 0.18% and the viability, T/C [9] was 101%. For the same compound, the viability, T/C [10] was 122%, the viability, T/C [11] was 101% and the viability, T/C [12] was 62.7%. For the same compound, the viability, T/C (second compound 0.3 µM, first compound 3.16 µM) was 7.84%, the viability, T/C (second compound 0.3 µM, first compound 10 µM) was 0.2% and the viability, T/C [13] was 109%. The viability, T/C [14] was 110%, the viability, T/C [15] was 105% and the viability, T/C [16] was 60.4%. It also gave a viability, T/C (second compound 0.949 µM, first compound 3.16 µM) of 11.3%, a viability, T/C (second compound 0.949 µM, first compound 10 µM) of 0.18% and a viability, T/C [17] of 115%. It also gave a viability, T/C [18] of 112%, a viability, T/C [19] of 104% and a viability, T/C [20] of 61.8%. For the same compound, the viability, T/C (second compound 3 µM, first compound 3.16 µM) was 10.2% and the viability, T/C (second compound 3 µM, first compound 10 µM) was 1.38%.
Compound `CCN1C(C(=O)NC23CCC(C(=O)O)(CC2)CC3)C(c2cccc(Cl)c2F)C2(C(=O)Nc3cc(Cl)ccc32)C12CCCCC2` (stereo not given) + CNC(C)C(=O)NC1CN(S(=O)(=O)c2cccc(S(=O)(=O)N3CCC4CCC(C(=O)NC(c5ccccc5)c5ccccc5)N4C(=O)C(NC(=O)C(C)NC)C3)c2)CCC2CCC(C(=O)NC(c3ccccc3)c3ccccc3)N2C1=O has an IC50 (second compound 0.01 µM) greater than 3 µM, an IC50 (second compound 0.0316 µM) greater than 3 µM and an IC50 (second compound 0.1 µM) greater than 3 µM. It also gave an IC50 (second compound 0.316 µM) greater than 3 µM, an IC50 (second compound 1 µM) greater than 3 µM and a viability, T/C (second compound 0.01 µM, first compound 0.00949 µM) of 92.6%. The viability, T/C (second compound 0.01 µM, first compound 0.03 µM) was 96.2%, the viability, T/C (second compound 0.01 µM, first compound 0.0949 µM) was 94.8% and the viability, T/C (second compound 0.01 µM, first compound 0.3 µM) was 98%. It also gave a viability, T/C (second compound 0.01 µM, first compound 0.949 µM) of 106%, a viability, T/C (second compound 0.01 µM, first compound 3 µM) of 101% and a viability, T/C (second compound 0.0316 µM, first compound 0.00949 µM) of 84.8%. The viability, T/C (second compound 0.0316 µM, first compound 0.03 µM) was 89%, the viability, T/C (second compound 0.0316 µM, first compound 0.0949 µM) was 80.7% and the viability, T/C (second compound 0.0316 µM, first compound 0.3 µM) was 84.8%. It also gave a viability, T/C (second compound 0.0316 µM, first compound 0.949 µM) of 83.4%, a viability, T/C (second compound 0.0316 µM, first compound 3 µM) of 93.8% and a viability, T/C [21] of 88.6%. It also gave a viability, T/C [22] of 87.9%, a viability, T/C [23] of 88.6% and a viability, T/C [24] of 84.8%. For the same compound, the viability, T/C (second compound 0.1 µM, first compound 0.949 µM) was 90.7%, the viability, T/C (second compound 0.1 µM, first compound 3 µM) was 86.7% and the viability, T/C [25] was 84.4%. The viability, T/C [26] was 85%, the viability, T/C [27] was 79% and the viability, T/C [28] was 84.2%. The viability, T/C (second compound 0.316 µM, first compound 0.949 µM) was 94.8%, the viability, T/C (second compound 0.316 µM, first compound 3 µM) was 89.6% and the viability, T/C [29] was 97.2%. The viability, T/C [30] was 100%, the viability, T/C [31] was 86.9% and the viability, T/C [32] was 86.9%. It also gave a viability, T/C (second compound 1 µM, first compound 0.949 µM) of 90.1% and a viability, T/C (second compound 1 µM, first compound 3 µM) of 85.2%.
`NC(=O)C(=Cn1cnc(-c2cc(C(F)(F)F)cc(C(F)(F)F)c2)n1)c1cncnc1` + Cc1c(S(C)(=O)=O)c(-c2cc(F)cc(N3CCN(c4ccc(NS(=O)(=O)c5ccc(NC(CCN6CCC(C(=O)OCCCP(=O)(O)O)CC6)CSc6ccccc6)c(S(=O)(=O)C(F)(F)F)c5)cc4)CC3)c2)c(-c2ccc(Cl)cc2)n1C(C)C showed an IC50 (second compound 0.1 µM) of 0.199 µM, an IC50 (second compound 0.316 µM) of 0.137 µM and an IC50 (second compound 1 µM) of 0.106 µM. The IC50 (second compound 3.16 µM) was 0.0639 µM, the IC50 (second compound 10 µM) was 0.0668 µM and the viability, T/C (second compound 0.1 µM, first compound 0.000949 µM) was 106%. It also gave a viability, T/C (second compound 0.1 µM, first compound 0.003 µM) of 99.1%, a viability, T/C [21] of 91.7% and a viability, T/C [22] of 79.6%. It also gave a viability, T/C [23] of 82.2%, a viability, T/C [24] of 34.8% and a viability, T/C (second compound 0.316 µM, first compound 0.000949 µM) of 100%. The viability, T/C (second compound 0.316 µM, first compound 0.003 µM) was 96.2%, the viability, T/C [25] was 93.7% and the viability, T/C [26] was 77.6%. It also gave a viability, T/C [27] of 60.3%, a viability, T/C [28] of 29.3% and a viability, T/C (second compound 1 µM, first compound 0.000949 µM) of 98.3%. For the same compound, the viability, T/C (second compound 1 µM, first compound 0.003 µM) was 103%, the viability, T/C [29] was 79.7% and the viability, T/C [30] was 79%. It also gave a viability, T/C [31] of 53.1%, a viability, T/C [32] of 19.1% and a viability, T/C (second compound 3.16 µM, first compound 0.000949 µM) of 97.1%. The viability, T/C (second compound 3.16 µM, first compound 0.003 µM) was 98.5%, the viability, T/C (second compound 3.16 µM, first compound 0.00949 µM) was 91.8% and the viability, T/C (second compound 3.16 µM, first compound 0.03 µM) was 66.3%. The viability, T/C (second compound 3.16 µM, first compound 0.0949 µM) was 41.9%, the viability, T/C (second compound 3.16 µM, first compound 0.3 µM) was 17% and the viability, T/C (second compound 10 µM, first compound 0.000949 µM) was 119%. The viability, T/C (second compound 10 µM, first compound 0.003 µM) was 121%, the viability, T/C (second compound 10 µM, first compound 0.00949 µM) was 111% and the viability, T/C (second compound 10 µM, first compound 0.03 µM) was 85.2%. For the same compound, the viability, T/C (second compound 10 µM, first compound 0.0949 µM) was 34.5% and the viability, T/C (second compound 10 µM, first compound 0.3 µM) was 8.64%.
`CCN1CCN(Cc2ccc(Nc3ncc(F)c(-c4cc(F)c5nc(C)n(C(C)C)c5c4)n3)nc2)CC1` + CCN1C(C(=O)NC23CCC(C(=O)O)(CC2)CC3)C(c2cccc(Cl)c2F)C2(C(=O)Nc3cc(Cl)ccc32)C12CCCCC2 gave an IC50 (second compound 0.03 µM) greater than 1 µM, an IC50 (second compound 0.0949 µM) greater than 1 µM and an IC50 (second compound 0.3 µM) greater than 1 µM. The IC50 (second compound 0.949 µM) was greater than 1 µM, the IC50 (second compound 3 µM) was greater than 1 µM and the viability, T/C (second compound 0.03 µM, first compound 0.00316 µM) was 85.1%. It also gave a viability, T/C (second compound 0.03 µM, first compound 0.01 µM) of 93.5%, a viability, T/C [1] of 68.1% and a viability, T/C [2] of 64.7%. The viability, T/C [3] was 65.4%, the viability, T/C [4] was 56.5% and the viability, T/C (second compound 0.0949 µM, first compound 0.00316 µM) was 98.2%. It also gave a viability, T/C (second compound 0.0949 µM, first compound 0.01 µM) of 91.8%, a viability, T/C [5] of 67.2% and a viability, T/C [6] of 66.1%. It also gave a viability, T/C [7] of 61%, a viability, T/C [8] of 62.8% and a viability, T/C (second compound 0.3 µM, first compound 0.00316 µM) of 102%. It also gave a viability, T/C (second compound 0.3 µM, first compound 0.01 µM) of 86.5%, a viability, T/C [9] of 77.7% and a viability, T/C [10] of 59.9%. It also gave a viability, T/C [11] of 68.3%, a viability, T/C [12] of 62.4% and a viability, T/C (second compound 0.949 µM, first compound 0.00316 µM) of 85.9%. It also gave a viability, T/C (second compound 0.949 µM, first compound 0.01 µM) of 92.3%, a viability, T/C [13] of 74.2% and a viability, T/C [14] of 65.1%. It also gave a viability, T/C [15] of 69.1%, a viability, T/C [16] of 62.4% and a viability, T/C (second compound 3 µM, first compound 0.00316 µM) of 106%. The viability, T/C (second compound 3 µM, first compound 0.01 µM) was 99.1%, the viability, T/C [17] was 85.4% and the viability, T/C [18] was 65.6%. The viability, T/C [19] was 65.5% and the viability, T/C [20] was 64.2%.
